This note sets out measurements from the supplement of paper PMC8498969.

The structures appear in SMILES notation. Where only a bound is given, the exact number is not on record here.

Assay [1] has as its system HEK293. As to the kind of experiment: maximal inhibition of ZIKV NS1 production (% inhibition); higher = stronger antiviral effect. The protocol:
(§1)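 HEK293 cells in 1536-well plates were pre-treated with compound for 1 h, infected with ZIKV (MOI 1) for 24 h, and NS1 antigen (intra- plus extracellular) was measured by TR-FRET. Confirmation used 11-point 1:3 dilutions, and IC50 and maximal inhibition were fitted in GraphPad Prism.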

Assay [2] relates to HEK293. As to the kind of experiment: cytotoxicity IC50 (ATP content, uninfected cells); higher = less cytotoxic. The conditions noted are these: infection: none.
Assay [3] concerns HEK293. As to the kind of experiment: IC50 for inhibition of ZIKV NS1 production. On the procedure: as §1

Compound `Cc1ccc([N+](=O)[O-])cc1S(=O)(=O)N(C)/N=C/c1cnc2ccc(Br)cn12` registered a maximal inhibition with HEK293 [1] of 101. Besides, the “cytotoxicity IC50” value with HEK293 [2] was more than 100 µM. The IC50 in the assay on HEK293 [3] was found to be 0.62 µM.
As for `NS(=O)(=O)c1cccc2c1C(=O)c1cccc(O)c1C2=O`, the maximal inhibition in the assay on HEK293 [1] was determined as 98. Moreover, in the assay with HEK293 [2], the “cytotoxicity IC50” value is 2.8 µM. Besides, in the assay on HEK293 [3], the IC50 came to 2.6 µM.
As to `Nc1cc(C(F)(F)F)c(-c2cc(N3CCOCC3)nc(N3CCOCC3)n2)cn1`, in the assay with HEK293 [1], the maximal inhibition was found to be 74. The “cytotoxicity IC50” value with HEK293 [2] is 2.3 µM. The IC50 with HEK293 [3] was found to be 4.2 µM.
For `Cc1cc(Nc2cc(NC(=O)c3c(Cl)cccc3Cl)ccn2)nc(N)n1`, in that order: 97, 70 µM and 35 µM.
In the assay on HEK293 [1], `CC[C@@H](C(=O)[C@@H](C)[C@@H](O)[C@H](C)[C@@H]1O[C@@H]([C@@H](CC)C(=O)O)CC[C@@H]1C)[C@H]1O[C@]2(C=C[C@@H](O)[C@]3(CC[C@@](C)([C@H]4CC[C@](O)(CC)[C@H](C)O4)O3)O2)[C@H](C)C[C@@H]1C` came in with a maximal inhibition of 106. For the same compound, the “cytotoxicity IC50” value in the assay on HEK293 [2] is 27 µM. Also, the IC50 in the assay with HEK293 [3] was found to be 17 µM.
`COc1cc([C@@H]2c3cc4c(cc3[C@H](O)[C@H]3COC(=O)[C@@H]23)OCO4)cc(OC)c1OC` yielded a maximal inhibition in the assay with HEK293 [1] of 68. The “cytotoxicity IC50” value in the assay on HEK293 [2] was more than 100 µM. In the assay on HEK293 [3], this compound yielded an IC50 of 2.6 µM.
For `COc1ccc(OC)c(-c2nnc3ccc(-c4ccc(OC)c(O[C@@H]5CCOC5)c4)nn23)c1`, the maximal inhibition in the assay on HEK293 [1] came out at 42. The “cytotoxicity IC50” value with HEK293 [2] is more than 100 µM. This compound also showed an IC50 in the assay on HEK293 [3] of 40 µM.
Consider `OC[C@H](Cc1ccccc1)Nc1nc(Oc2ccc3c(c2)CCC3)nc2c1ncn2Cc1ccc(-c2ccccc2)cc1`, for which the maximal inhibition in the assay with HEK293 [1] amounted to 100. Further, the “cytotoxicity IC50” value with HEK293 [2] worked out at 90 µM. In the assay with HEK293 [3], this compound displayed an IC50 of 7.8 µM.
The compound `CC[C@@]1(O)C(=O)OCc2c1cc1n(c2=O)Cc2cc3c(CN(C)C)c(O)ccc3nc2-1` registered a maximal inhibition in the assay with HEK293 [1] of 96. Moreover, in the assay on HEK293 [2], the “cytotoxicity IC50” value was more than 100 µM. Further, the IC50 with HEK293 [3] turned out to be 0.051 µM.
For `COc1cc(OC)c(/C=C/S(=O)(=O)Cc2ccc(OC)c(NCC(=O)O)c2)c(OC)c1`, in that order: 61, more than 100 µM and 1.4 µM.
For `C#C[C@]1(OC(C)=O)CC[C@H]2[C@@H]3CCC4=C/C(=N/O)CC[C@@H]4[C@H]3CC[C@@]21CC`, the maximal inhibition with HEK293 [1] was 48. The “cytotoxicity IC50” value with HEK293 [2] was more than 100 µM. Besides, the IC50 in the assay with HEK293 [3] is 43 µM.
`[O-][n+]1ccccc1SSc1cccc[n+]1[O-]` came in with a maximal inhibition in the assay with HEK293 [1] of 98. In addition, the “cytotoxicity IC50” value in the assay on HEK293 [2] was determined as 0.16 µM. In the assay on HEK293 [3], this compound gave an IC50 of 1.4 µM.
In turn, `C=C1C(=O)[C@]23[C@H](O)[C@H]1CC[C@H]2[C@@]12CO[C@]3(O)[C@@H](O)[C@@H]1C(C)(C)CC[C@@H]2O` came in with a maximal inhibition with HEK293 [1] of 108. In the assay with HEK293 [2], the “cytotoxicity IC50” value came to 40 µM. The same compound returned an IC50 in the assay with HEK293 [3] of 17 µM.
Consider `CC(=O)OC[C@H]1O[C@@H]([S-])[C@H](OC(C)=O)[C@@H](OC(C)=O)[C@@H]1OC(C)=O.CCP(CC)CC.[Au+]`, for which the maximal inhibition in the assay with HEK293 [1] came to 107. Further, in the assay with HEK293 [2], the “cytotoxicity IC50” value was 3 µM. Also, the IC50 in the assay on HEK293 [3] is 3.5 µM.
In the assay on HEK293 [1], `COc1cccc2c(NCc3ccccc3)nc(-n3c(N)nc4ccccc43)nc12` registered a maximal inhibition of 100. The “cytotoxicity IC50” value in the assay with HEK293 [2] stood at 30 µM. In addition, the IC50 with HEK293 [3] worked out at 50 µM.
Turning to `CO[C@H]1C(=O)[C@]2(C)[C@@H](OC)C[C@H]3OC[C@@]3(OC(C)=O)[C@H]2[C@H](OC(=O)c2ccccc2)[C@]2(O)C[C@H](OC(=O)[C@H](O)[C@@H](NC(=O)OC(C)(C)C)c3ccccc3)C(C)=C1C2(C)C`, the maximal inhibition in the assay with HEK293 [1] was found to be 68. The “cytotoxicity IC50” value with HEK293 [2] is more than 100 µM. The compound further showed an IC50 in the assay with HEK293 [3] of 1.8 µM.
For the compound `COc1cccc2c1C(=O)c1c(O)c3c(c(O)c1C2=O)C[C@@](O)(C(=O)CO)C[C@@H]3O[C@H]1C[C@H](N)[C@@H](O)[C@H](C)O1`, the maximal inhibition in the assay on HEK293 [1] is 84. In addition, in the assay on HEK293 [2], the “cytotoxicity IC50” value was more than 100 µM. In the assay on HEK293 [3], this compound had an IC50 of 0.49 µM.
In the assay with HEK293 [1], `Nc1nc(Cl)nc2c1ncn2[C@@H]1O[C@H](CO)[C@@H](O)[C@@H]1F` returned a maximal inhibition of 94. For the same compound, the “cytotoxicity IC50” value in the assay with HEK293 [2] is more than 100 µM. Further, in the assay with HEK293 [3], the IC50 was found to be 41 µM.
The compound `Nc1ncn([C@@H]2O[C@H](CO)[C@@H](O)[C@H]2O)c(=O)n1` came in with a maximal inhibition with HEK293 [1] of 58. For the same compound, the “cytotoxicity IC50” value with HEK293 [2] was more than 100 µM. This compound also had an IC50 with HEK293 [3] of 44 µM.
For `COc1cccc2nc(-c3cccs3)nc(NN3C(=O)C=C(C)C3=O)c12`, in that order: 103, 50 µM and 11 µM.
`NC1(c2ccc(-c3nc4ccn5c(=O)[nH]nc5c4cc3-c3ccccc3)cc2)CCC1` showed a maximal inhibition in the assay on HEK293 [1] of 103. The “cytotoxicity IC50” value in the assay on HEK293 [2] amounted to 4.4 µM. In the assay with HEK293 [3], this compound registered an IC50 of 23 µM.
The compound `CCCCC1C(=O)N(c2ccccc2)N(c2ccc(O)cc2)C1=O` (stereo unspecified) yielded a maximal inhibition in the assay with HEK293 [1] of 107. In the assay with HEK293 [2], the “cytotoxicity IC50” value was more than 100 µM. Also, in the assay with HEK293 [3], the IC50 was found to be 17 µM.
With `Cc1c(O)cccc1C(=O)N[C@@H](CSc1ccccc1)[C@H](O)CN1C[C@H]2CCCC[C@H]2C[C@H]1C(=O)NC(C)(C)C`, in the assay on HEK293 [1], the maximal inhibition turned out to be 84. The “cytotoxicity IC50” value in the assay on HEK293 [2] was more than 100 µM. The same compound returned an IC50 with HEK293 [3] of 24 µM.
For the compound `C[C@@]12C(=O)OC(=O)[C@]1(C)[C@H]1CC[C@@H]2O1`, the maximal inhibition with HEK293 [1] was 100. Besides, in the assay with HEK293 [2], the “cytotoxicity IC50” value is more than 100 µM. Besides, the IC50 with HEK293 [3] came to 5.5 µM.
With `CN1CC[C@H](c2c(O)cc(O)c3c(=O)cc(-c4ccccc4Cl)oc23)[C@H](O)C1`, in the assay on HEK293 [1], the maximal inhibition was found to be 93. In addition, the “cytotoxicity IC50” value in the assay with HEK293 [2] was more than 100 µM. In the assay on HEK293 [3], this compound had an IC50 of 1.2 µM.
For the compound `CC(C)c1cnn2c(NCc3ccccc3)cc(N[C@@H](CO)[C@H](O)CO)nc12`, the maximal inhibition in the assay on HEK293 [1] was found to be 87. In the assay with HEK293 [2], the “cytotoxicity IC50” value was more than 100 µM. The compound also gave an IC50 with HEK293 [3] of 1.2 µM.
Regarding `c1cnc2c(c1)ccc1cccnc12`, in the assay on HEK293 [1], the maximal inhibition amounted to 99. In addition, in the assay on HEK293 [2], the “cytotoxicity IC50” value turned out to be 3.6 µM. Moreover, the IC50 in the assay with HEK293 [3] is 14 µM.
`CC[C@@]1([C@@H]2O[C@@H]([C@H]3O[C@@](O)(CO)[C@H](C)C[C@@H]3C)C[C@@H]2C)CC[C@H]([C@]2(C)CC[C@]3(C[C@H](O)[C@@H](C)[C@@H]([C@@H](C)[C@@H](OC)[C@H](C)C(=O)O)O3)O2)O1` showed a maximal inhibition with HEK293 [1] of 103. Moreover, in the assay with HEK293 [2], the “cytotoxicity IC50” value is more than 100 µM. In the assay with HEK293 [3], the IC50 came to 2.8 µM.
On to `CN(C)c1ccc(C(=C2C=CC(=[N+](C)C)C=C2)c2ccccc2)cc1`, for which, in the assay with HEK293 [1], the maximal inhibition was determined as 102. The “cytotoxicity IC50” value in the assay on HEK293 [2] amounted to 1.8 µM. Also, the IC50 with HEK293 [3] was determined as 1.6 µM.
On to `Nc1ccc(-c2ccc3ncc4ccc(=O)n(-c5cccc(C(F)(F)F)c5)c4c3c2)cn1`, for which, in the assay on HEK293 [1], the maximal inhibition came to 90. Besides, the “cytotoxicity IC50” value in the assay with HEK293 [2] is more than 100 µM. The IC50 in the assay on HEK293 [3] was determined as 0.72 µM.
As for `C/C=C(/C)C(=O)O[C@H]1C(C)=C2[C@H]([C@@H]1OC(=O)CCCCCCC)[C@@](C)(OC(C)=O)C[C@H](OC(=O)CCC)[C@@]1(O)[C@H]2OC(=O)[C@@]1(C)O`, in the assay with HEK293 [1], the maximal inhibition turned out to be 93. For the same compound, the “cytotoxicity IC50” value in the assay with HEK293 [2] was 40 µM. In the assay with HEK293 [3], this compound came in with an IC50 of 0.17 µM.
In the assay with HEK293 [1], `O=C1c2c(O)ccc(O)c2C(=O)c2c(NCCNCCO)ccc(NCCNCCO)c21` yielded a maximal inhibition of 100. Moreover, the “cytotoxicity IC50” value in the assay with HEK293 [2] was found to be 50 µM. This compound returned an IC50 with HEK293 [3] of 0.23 µM.

One may read the IC50 as the concentration needed to halve the response being measured.
